# Reference: publication PMC3323469, “Comparative study of ^64Cu/NOTA-[D-Tyr^6,βAla^11,Thi^13,Nle^14]BBN(6-14) monomer and dimers for prostate cancer PET imaging” (EJNMMI Research, 2012)
# Square brackets hold non-standard residues; d marks the D form. Peptide text beside a SMILES is read from it. * marks the point of attachment. NOTA = O=C(O)CN1CCN(CC(=O)O)CCN(CC(=O)*)CC1; 2Thi = N[C@@H](Cc1cccs1)C(=O)O; Nle = CCCC[C@H](N)C(=O)O; AEEA = NCCOCCOCC(=O)O; βAla = NCCC(=O)O
# Key:
# GRPR [1] = molecular target: T1, GRPR (Homo sapiens, UniProt P30550); test: Competitive binding in human breast cancer T47D cells; conditions: tested in triplicate
# T1 sequence (P30550 whole entry): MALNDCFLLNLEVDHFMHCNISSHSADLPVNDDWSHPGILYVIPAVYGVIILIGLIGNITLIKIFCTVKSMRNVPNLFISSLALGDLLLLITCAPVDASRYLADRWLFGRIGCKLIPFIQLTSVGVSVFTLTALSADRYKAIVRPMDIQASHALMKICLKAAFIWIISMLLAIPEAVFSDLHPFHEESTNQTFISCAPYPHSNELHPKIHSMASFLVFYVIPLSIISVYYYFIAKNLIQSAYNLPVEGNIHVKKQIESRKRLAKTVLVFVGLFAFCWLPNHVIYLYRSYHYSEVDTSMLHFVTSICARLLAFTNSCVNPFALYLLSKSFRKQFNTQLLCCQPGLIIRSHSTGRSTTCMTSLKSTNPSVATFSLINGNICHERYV
# Source text: Table 1 Analytical data for NOTA-BBN(6-14) monomer and dimmers | column: Peptide
# GRPR [2] = molecular target: T2, GRPR (Mus musculus, UniProt P21729); test: Biodistribution in Balb/c mice (in vivo GRPR-targeting efficacy); conditions: mouse, pancreas, intravenous, total radioactivity; 64Cu-labeled peptide, female Balb/c mice, 30 min p.i.
# T2 construct: using the pancreas, a GRPR-rich tissue, as a target for specific receptor-mediated accumulation; from tissue; host or cells: Female Balb/c mice, in vivo; organs (pancreas and others) collected 30 min p.i
# T2 sequence (P21729 whole entry): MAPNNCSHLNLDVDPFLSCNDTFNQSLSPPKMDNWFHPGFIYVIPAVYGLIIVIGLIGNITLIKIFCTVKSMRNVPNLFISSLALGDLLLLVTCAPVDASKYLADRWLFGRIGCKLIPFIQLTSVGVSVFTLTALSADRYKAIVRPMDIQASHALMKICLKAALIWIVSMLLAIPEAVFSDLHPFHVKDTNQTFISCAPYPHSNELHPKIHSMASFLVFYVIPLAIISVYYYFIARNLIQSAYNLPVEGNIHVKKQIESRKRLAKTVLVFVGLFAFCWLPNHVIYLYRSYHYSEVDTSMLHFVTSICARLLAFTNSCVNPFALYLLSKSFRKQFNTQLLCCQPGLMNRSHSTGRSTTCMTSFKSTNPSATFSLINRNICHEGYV
# Method: To determine the in vivo GRPR-targeting efficacy of labeled peptides, biodistribution of female Balb/c mice were realized with a minimum of 4 mice for each condition. Briefly, mice were injected with 370 to 740 kBq (10 to 20 μCi; 100 μL) of either ^64Cu/NOTA-monomer, ^64Cu/NOTA-dimer 1 or ^64Cu/NOTA-dimer 2 via the caudal vein. The animals were sacrificed with CO2 at 30 min post-injection [p.i.]. Organs of interest were then collected, weighed and measured in a gamma counter. The results were expressed as percentage of the injected dose per gram of tissue [%ID/g].
# GRPR [3] = molecular target: T1, GRPR; test: Competitive binding assay with [125I-Tyr4]bombesin on PC3 cells; parameters: host or cells: PC3 cells (whole, adherent cells in 24-well plates); conditions: read-out: Ki (affinity for GRPR)
# Method: Competition assays were performed in 24-well plates using PC3 cells. The cells were cultured until near confluence, and the medium was replaced by 400 μL of reaction medium (RPMI complemented with 2 mg/mL BSA, 4.8 mg/mL HEPES, 1 U/mL penicillin G and 1 μg/mL streptomycin). For the assay, equal volumes of radioactive and non-radioactive ligands were added. […] The plates were incubated for 40 min at 37°C with agitation. After the incubation, the reaction medium was removed, and the cells were washed three times with PBS at room temperature. The cells were harvested and counted in a gamma counter (Cobra II auto-gamma counter, Packard, MN, USA). Experiments were realized three times in triplicate. Data were analyzed with GraphPad Prism 5 Software (GraphPad Software, San Diego, CA, USA) to determine the IC50. Finally, the Ki was determined using Cheng and Pursoff's formula [32].
smiles,measurement,setting,value
"CCCC[C@H](NC(=O)[C@H](Cc1cccs1)NC(=O)[C@H](Cc1c[nH]cn1)NC(=O)CCNC(=O)[C@@H](NC(=O)[C@H](C)NC(=O)[C@H](Cc1c[nH]c2ccccc12)NC(=O)[C@H](CCC(N)=O)NC(=O)[C@@H](Cc1ccc(O)cc1)NC(=O)COCCOCCNC(=O)CN1CCN(CC(=O)O)CCN(CC(=O)O)CC1)C(C)C)C(N)=O [NOTA-monomer, NOTA-PEG-BBN(6-14)] ({NOTA-AEEA}-[dY]QWAV[βAla]H[2Thi][Nle]-NH2)",Ki,GRPR [1],1.3 nM
same,tissue uptake at 0.5 h,GRPR [2],18.4 ± 2.9 %ID/g
same,Ki,GRPR [3],2.51 ± 1.54 nM
